Test results as given in paper PMC4613828 (PLoS Pathogens, 2015).

Tests used:
[1] = test system: CVA21 (strain Coe); assay: Virus-cell-based antiviral assay (CPE reduction, MTS); conditions: BGM cells
[2] = test system: EV71-B5 (strain TW/96016/08 genogroup B5); assay: as above; parameters: species or system enterovirus 71; conditions: Enterovirus A; EV71 strain TW/96016/08 genogroup B5; RD cells
[3] = test system: CVA16 (strain G-10); assay: as above; parameters: species or system coxsackievirus A16; conditions: Enterovirus A, HeLa H1 cells
[4] = test system: CVB3 (strain Nancy); assay: as above; parameters: species or system Coxsackievirus B3; conditions: Enterovirus B, BGM cells
[5] = test system: ECHO11 (echovirus 11 strain Gregory); assay: as above; conditions: Enterovirus B, BGM cells
[6] = test system: PV1 (poliovirus type 1 strain Sabin); assay: microbe, parasite or virus in culture; type: cell-based; conditions: Enterovirus C, BGM
[7] = test system: HRV02 (human rhinovirus type 2); assay: Virus-cell-based antiviral assay (CPE reduction, MTS); conditions: Human rhinovirus sp., HeLa H1 cells (footnote c), 35°C
[8] = test system: EV71-B2 (strain 11316 genogroup B2); assay: as above; parameters: species or system enterovirus 71; conditions: Enterovirus A; EV71 strain 11316 genogroup B2; RD cells
[9] = test system: PV2 (poliovirus type 2 strain Sabin); assay: microbe, parasite or virus in culture; type: cell-based; conditions: Enterovirus C, BGM
[10] = test system: PV3 (poliovirus type 3 strain Sabin); assay: microbe, parasite or virus in culture; type: cell-based; conditions: Enterovirus C, BGM
[11] = test system: CVB4 (strain E2 Edwards); assay: Virus-cell-based antiviral assay (CPE reduction, MTS); conditions: Enterovirus B, BGM cells
[12] = test system: CVA9 (strain Bozek); assay: as above; parameters: species or system Coxsackie A9; conditions: Enterovirus B, BGM cells
[13] = test system: HRV14 (human rhinovirus type 14); assay: as above; conditions: Human rhinovirus sp., HeLa H1 cells (footnote c), 35°C
[14] = in vitro; conditions: African green monkey

SMILES	EC50 [1]	EC50 [2]	EC50 [3]	EC50 [4]	EC50 [5]	EC50 [6]	EC50 [7]	EC50 [8]	EC50 [9]	EC50 [10]	EC50 [11]	EC50 [12]	EC50 [13]	CC50 [14]
CCON=Cc1ccc(OCCC(C)CCN2CCN(c3ccncc3)C2=O)cc1 (stereo not shown) [GPP3]	16 ± 15 nM	0.93 ± 0.3 nM	14 ± 4 nM	3700 ± 200 nM	500 ± 100 nM	200 nM	1000 ± 700 nM	0.96 ± 0.6 nM	6 nM	66 nM	> 7000 nM	1500 ± 100 nM	1500 ± 300 nM	7000 ± 2000 nM
CCON=Cc1ccc(OCCC(C)CCN2CCN(c3ccnc(C(N)=O)c3)C2=O)cc1 (stereo not shown) [ALD]	56 ± 40 nM	82 ± 23 nM	43 ± 8 nM	2200 ± 200 nM	2100 ± 500 nM	3500 ± 1400 nM	> 21000 nM	31 ± 12 nM	75 ± 19 nM	184 ± 8 nM	> 7000 nM	5400 ± 1000 nM	843 ± 13 nM	7000 ± 1000 nM
